The text below walks through data of ChEMBL document CHEMBL4138241, “Synthesis and in vitro evaluation of novel substituted isatin-propylene-1H-1,2,3-triazole-4-methylene-moxifloxacin hybrids for their anti-mycobacterial activities” (Eur J Med Chem, 2018).

Values after ≈ are worked out from the molar mass of the structure shown. Where only a bound is given, the exact number is not on record here.

Common to all, as to format: functional
Assay [1] deals with Mycobacterium tuberculosis. Briefly: Antimycobacterial activity against isoniazid/rifampicin/ethambutol-resistant Mycobacterium tuberculosis after 3 days by rapid direct susceptibility test. The note with it: 72 h.
For assay [2], the system named is Mycobacterium tuberculosis. Briefly: Potency index, ratio of isoniazid MIC to compound MIC for antimycobacterial activity against isoniazid/rifampicin/ethambutol-resistant Mycobacterium tuberculosis.
For assay [3], the system named is Mycobacterium tuberculosis. Briefly: Potency index, ratio of rifampicin MIC to compound MIC for antimycobacterial activity against isoniazid/rifampicin/ethambutol-resistant Mycobacterium tuberculosis.
Assay [4] deals with Mycobacterium tuberculosis. Briefly: Potency index, ratio of moxifloxacin MIC to compound MIC for antimycobacterial activity against isoniazid/rifampicin/ethambutol-resistant Mycobacterium tuberculosis.

A word on the MIC: it is the smallest concentration in the dilution series that meets the test's criterion for growth inhibition. A low value points to greater potency. The compound `COc1c(N2C[C@H]3CCCN(Cc4cn(CCCN5C(=O)/C(=N/O)c6cc(C)ccc65)nn4)[C@H]3C2)c(F)cc2c(=O)c(C(=O)O)cn(C3CC3)c12` displayed an MIC in assay [1] of 2 µg/mL (≈ 2.86 µM).

Turning to `COc1c(N2C[C@H]3CCCN(Cc4cn(CCCN5C(=O)C(=O)c6cc(C)ccc65)nn4)[C@H]3C2)c(F)cc2c(=O)c(C(=O)O)cn(C3CC3)c12`, the MIC in assay [1] stood at 1 µg/mL (≈ 1.46 µM). Take `CO/N=C1/C(=O)N(CCCn2cc(CN3CCC[C@@H]4CN(c5c(F)cc6c(=O)c(C(=O)O)cn(C7CC7)c6c5OC)C[C@@H]43)nn2)c2ccccc21`: in assay [1], it took 0.25 µg/mL (≈ 0.358 µM) to inhibit growth (MIC). Take `CCO/N=C1/C(=O)N(CCCn2cc(CN3CCC[C@@H]4CN(c5c(F)cc6c(=O)c(C(=O)O)cn(C7CC7)c6c5OC)C[C@@H]43)nn2)c2ccccc21`: 0.25 µg/mL (≈ 0.351 µM) was the least that counted as inhibitory in assay [1] (MIC). Take `COc1c(N2C[C@H]3CCCN(Cc4cn(CCCN5C(=O)C(=O)c6ccccc65)nn4)[C@H]3C2)c(F)cc2c(=O)c(C(=O)O)cn(C3CC3)c12`: 1 µg/mL (≈ 1.49 µM) was the least that counted as inhibitory in assay [1] (MIC). Take `CO/N=C1/C(=O)N(CCCn2cc(CN3CCC[C@@H]4CN(c5c(F)cc6c(=O)c(C(=O)O)cn(C7CC7)c6c5OC)C[C@@H]43)nn2)c2ccc(F)cc21`: the Ratio in assay [2], in assay [3] and in assay [4] was 2 - 2048 each time. In assay [1], this compound showed an MIC of 0.06 µg/mL (≈ 0.0837 µM). In assay [1], `CCO/N=C1/C(=O)N(CCCn2cc(CN3CCC[C@@H]4CN(c5c(F)cc6c(=O)c(C(=O)O)cn(C7CC7)c6c5OC)C[C@@H]43)nn2)c2ccc(F)cc21` came in with an MIC of 0.12 µg/mL (≈ 0.164 µM).

On to `COc1c(N2C[C@H]3CCCN(Cc4cn(CCCN5C(=O)C(=O)c6cc(F)ccc65)nn4)[C@H]3C2)c(F)cc2c(=O)c(C(=O)O)cn(C3CC3)c12`, for which, in assay [1], it took 0.25 µg/mL (≈ 0.364 µM) to inhibit growth (MIC). In assay [1], `COc1c(N2C[C@H]3CCCN(Cc4cn(CCCN5C(=O)/C(=N/O)c6ccccc65)nn4)[C@H]3C2)c(F)cc2c(=O)c(C(=O)O)cn(C3CC3)c12` showed an MIC of 1 µg/mL (≈ 1.46 µM). On the same count and under the same terms, to `COc1c(N2C[C@H]3CCCN(Cc4cn(CCCN5C(=O)/C(=N/O)c6cc(F)ccc65)nn4)[C@H]3C2)c(F)cc2c(=O)c(C(=O)O)cn(C3CC3)c12` belongs 0.25 µg/mL (≈ 0.356 µM); to `CO/N=C1/C(=O)N(CCCn2cc(CN3CCC[C@@H]4CN(c5c(F)cc6c(=O)c(C(=O)O)cn(C7CC7)c6c5OC)C[C@@H]43)nn2)c2ccc(C)cc21`, 0.5 µg/mL (≈ 0.701 µM). On to `CCO/N=C1/C(=O)N(CCCn2cc(CN3CCC[C@@H]4CN(c5c(F)cc6c(=O)c(C(=O)O)cn(C7CC7)c6c5OC)C[C@@H]43)nn2)c2ccc(C)cc21`, for which the MIC in assay [1] came to 0.25 µg/mL (≈ 0.344 µM). Regarding `NNC(=O)c1ccncc1` [ISONIAZID], the MIC in assay [1] is greater than 128 µg/mL. Consider `COc1c(N2C[C@@H]3CCCN[C@@H]3C2)c(F)cc2c(=O)c(C(=O)O)cn(C3CC3)c12` [MOXIFLOXACIN], for which, in assay [1], inhibition of growth (MIC) required 0.12 µg/mL (≈ 0.299 µM). The same measure, in the same setting: to `CO[C@H]1/C=C/O[C@@]2(C)Oc3c(C)c(O)c4c(O)c(c(/C=N/N5CCN(C)CC5)c(O)c4c3C2=O)NC(=O)/C(C)=C\C=C\[C@H](C)[C@H](O)[C@@H](C)[C@@H](O)[C@@H](C)[C@H](OC(C)=O)[C@@H]1C` [RIFAMPIN] belongs 32 µg/mL (≈ 38.9 µM).
